Data taken from paper PMC6374920, “Synthesis and biological evaluation of 3-arylcoumarins as potential anti-Alzheimer's disease agents” (Journal of Enzyme Inhibition and Medicinal Chemistry, 2019).

Tests used:
[1] = In vitro antioxidant activity, FRAP assay; settings: FeSO4 as standard; mean ± SD (n = 3)
Procedure: The total antioxidant capacity of the 3-arylcoumarin compounds was measured by the FRAP (the Ferric Reducing Ability of Plasma) assay of Benzie et al.[29] with slight modifications. This method is based on the reduction of colourless Fe(III)-TPTZ(2,4,6-Tris(2-pyridyl)-s-triazine) complex to coloured Fe(II)-TPTZ complex by the compounds. FRAP working solution (300 mmol/L acetate buffer, 10 mmol/L TPTZ, 20 mmol/LFeCl3) was ready to use. A hundred microlitres of the sample solution was added to 3 ml of FRAP reagent and then incubated at 37 °C for 15 min. The experiments were repeated for three times. The absorbance was measured at 593 nm to clarify the changes. The standard curve was drawn with FeSO4 as standard material, and the regression equation was obtained. With 1.0 mmol/L FeSO4 as standard, the antioxidant activity of the sample is expressed in millimoles of […] required to achieve the same absorbance.

MAO-B = molecular target: T1, MAO-B (Rattus norvegicus, UniProt P19643); test: In vitro monoamine oxidase inhibitory activity (Holt method, crude enzyme from rat liver); format: biochemical; settings: crude enzyme from Wistar rat liver; mean ± SD (n = 3)
T1 construct: The crude enzyme was extracted from the liver of 200–250 g of Wistar rats; from tissue; host or cells: Wistar rat liver, crude enzyme extract
T1 sequence (P19643 1-520): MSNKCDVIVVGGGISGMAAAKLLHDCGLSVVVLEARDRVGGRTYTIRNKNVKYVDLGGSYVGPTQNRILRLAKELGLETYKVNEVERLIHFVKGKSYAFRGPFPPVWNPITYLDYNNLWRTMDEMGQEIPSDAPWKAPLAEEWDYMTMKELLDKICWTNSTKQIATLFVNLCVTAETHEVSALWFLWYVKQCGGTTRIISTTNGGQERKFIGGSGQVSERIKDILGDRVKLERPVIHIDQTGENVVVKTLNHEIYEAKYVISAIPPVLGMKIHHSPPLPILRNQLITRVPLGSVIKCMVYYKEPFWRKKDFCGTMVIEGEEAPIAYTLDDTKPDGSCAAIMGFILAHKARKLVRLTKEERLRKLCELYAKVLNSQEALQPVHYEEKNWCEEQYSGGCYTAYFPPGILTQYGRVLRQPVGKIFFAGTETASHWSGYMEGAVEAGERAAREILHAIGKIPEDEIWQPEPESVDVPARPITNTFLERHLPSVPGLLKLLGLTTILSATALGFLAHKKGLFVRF
Procedure: The MAO inhibitory activity of the 3-arylcoumarin compounds was determined by the method of Holt et al.[26] with slight modifications. The crude enzyme was extracted from the liver of 200–250 g of Wistar rats according to literature methods. The crude enzyme protein content was determined by the Bradford/method using a Bradford Protein Assay Kit (Beyotime). Forty microlitres of enzyme solution and 40 µL of sample solution were added to a 96-well plate. The solution was then incubated at 37 °C for 20 min. One-twenty microlitres of the 4-(trifluoromethyl) benzylamine solution and 40 µL of the chromogenic agent (1 mmol/L vanillic acid, 0.5 mmol/L 4-aminoantipyrine, 4U/mL horseradish peroxidase, 0.2 M pH = 7.6 PBS constant volume) were added subsequently, and incubated at 37 °C for 90 min. The absorbance was measured at 490 nm using a microplate reader, and the inhibition rate of MAO and the IC50 value of each sample were calculated according to the formula. The control group replaced the sample solution with PBS (0.2 M, pH = 7.6), the positive control replaced the sample with the positive drug, and the blank group replaced the substrate with PBS, and each group was measured three times in parallel to average. Monoamineoxidase inhibitory effect (%)=[(AC−AB)−(AS−ASB)]/(AC−AB)×100% where AC is the absorbance of control group; AB is the absorbance of blank group; AS is the absorbance of sample group; ASB is the absorbance of sample blank group.
MAO plays an important role in neurotransmitter inactivation, and MAO dysfunction is considered to be the cause of many mental and neurological diseases. MAO plays an important role in AD pathology, and the progress of AD has a close correlation with MAO activity[35]^,[36]. All the synthesised compounds were evaluated for their MAO inhibitory activity in the way of Holt[26] by references. […] The MAO used in the experiment was self-made.

BuChE from horse serum = BuChE from horse serum (Equus caballus, UniProt P81908); settings: for IC50: read-out: IC50 value BuChE inhibitory activity, BuChE from horse serum, mean ± SD (n = 3)
BuChE from horse serum, sequence (P81908 whole entry): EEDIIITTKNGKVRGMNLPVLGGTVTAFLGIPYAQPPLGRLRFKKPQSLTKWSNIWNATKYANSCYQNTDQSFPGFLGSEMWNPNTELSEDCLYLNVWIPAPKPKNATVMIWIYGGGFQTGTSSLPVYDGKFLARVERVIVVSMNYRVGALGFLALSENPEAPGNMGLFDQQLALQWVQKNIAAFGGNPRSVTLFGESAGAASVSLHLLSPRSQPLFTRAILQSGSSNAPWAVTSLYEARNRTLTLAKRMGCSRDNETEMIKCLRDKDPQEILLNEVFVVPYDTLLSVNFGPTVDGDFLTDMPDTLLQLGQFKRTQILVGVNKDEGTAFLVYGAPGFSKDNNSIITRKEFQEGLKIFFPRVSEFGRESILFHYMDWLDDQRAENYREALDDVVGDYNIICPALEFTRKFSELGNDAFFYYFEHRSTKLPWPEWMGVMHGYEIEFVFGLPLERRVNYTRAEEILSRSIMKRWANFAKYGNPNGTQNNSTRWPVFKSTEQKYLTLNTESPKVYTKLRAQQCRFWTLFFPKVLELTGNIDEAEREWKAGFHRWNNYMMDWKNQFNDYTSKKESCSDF
Procedure: (§1) The anticholinesterase activity of the 3-arylcoumarin compounds was determined by the method of Ellman et al.[25] with slight modifications. AChE inhibitory activities were determined by AChE from electric eel (Macklin). BuChE inhibitory activities were determined by BuChE from horse serum (Aladdin). To a 10 ml tube, 2.65 ml of phosphate buffer solution (0.1 M, pH = 8.0), 100 µL of 5,5-dithiobis-2-nitrobenzoic acid (0.75 mM in 0.1 M phosphate buffer solution, pH = 8.0) were added sequentially, 50 µL AChE solution (0.2 U/mL in 0.1 M phosphate buffer solution, pH = 8.0), 100 µL of different concentrations of the sample solution, shaken well, and incubated at 37 °C for 5 min. Then 100 µL of substrate (1.5 mM in 0.1 M phosphate buffer solution, pH = 8.0) were added, shaken well, and incubated at 37 °C for 20 min. After the reaction was completed, 1 ml of sodium lauryl sulphate (4%, SDS in water) was added. […] Determination of the inhibitory activity of BuChE is similar. The sample blank group replaced the substrate with PBS, and the blank group replaced the sample solution with a solvent. The sample solution was set to five concentration gradients and the experiment was repeated three times. […] Cholinesterase inhibitory effect (%)=[A0−(A1−A2)]/A0×100% where A0 is the absorbance of blank group; A1 is the absorbance of sample group; A2 is the absorbance of sample blank group.

AChE from electric eel = AChE from electric eel (Electrophorus electricus, UniProt O42275); settings: read-out: IC50 value AChE inhibitory activity, mean ± SD (n = 3)
AChE from electric eel, sequence (O42275 24-633): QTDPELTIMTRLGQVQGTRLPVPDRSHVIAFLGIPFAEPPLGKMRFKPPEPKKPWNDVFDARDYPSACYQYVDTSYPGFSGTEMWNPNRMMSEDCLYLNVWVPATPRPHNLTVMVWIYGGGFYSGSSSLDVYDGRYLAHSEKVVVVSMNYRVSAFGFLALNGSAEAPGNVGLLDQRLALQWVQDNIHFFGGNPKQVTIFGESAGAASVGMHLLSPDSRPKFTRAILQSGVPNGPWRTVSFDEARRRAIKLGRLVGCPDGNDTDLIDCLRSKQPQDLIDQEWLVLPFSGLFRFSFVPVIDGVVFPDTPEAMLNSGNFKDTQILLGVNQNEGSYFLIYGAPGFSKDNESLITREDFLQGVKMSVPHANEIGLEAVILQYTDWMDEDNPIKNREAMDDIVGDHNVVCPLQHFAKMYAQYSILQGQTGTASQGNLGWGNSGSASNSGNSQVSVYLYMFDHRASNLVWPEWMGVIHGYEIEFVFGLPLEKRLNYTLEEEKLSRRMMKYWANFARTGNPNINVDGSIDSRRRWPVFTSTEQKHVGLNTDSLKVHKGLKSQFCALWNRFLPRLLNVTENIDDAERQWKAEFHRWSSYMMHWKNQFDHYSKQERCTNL
Procedure: as §1

Compound	FRAP value Antioxidant activity [1]	IC50 (MAO-B)	IC50 (BuChE from horse serum)	IC50 (AChE from electric eel)	selectivity BuChE over AChE (in words) (BuChE from horse serum; BuChE vs AChE inhibition)
O=C1O[C@H]([C@@H](O)CO)C(O)=C1O [Ascorbic Acid, reference compound]	3.79 ± 0.08 mmol/g	–	–	–	–
COc1ccc2cc(-c3ccc(O)cc3)c(=O)oc2c1 [Compound 13]	0.61 ± 0.11 mmol/g	> 700 µM	70.7 ± 5.75 µM	42.4 ± 3.16 µM	–
O=c1oc2cc(O)ccc2cc1-c1ccc(O)cc1 [Compound 4]	7.73 ± 0.12 mmol/g	> 700 µM	34.7 ± 1.87 µM	–	–
O=c1oc2cc(O)ccc2cc1-c1ccccc1 [Compound 5]	0.42 ± 0.01 mmol/g	> 700 µM	14.4 ± 1.94 µM	–	selective BuChE inhibitory activity
O=c1oc2ccccc2cc1-c1ccc(O)cc1 [Compound 1]	0.51 ± 0.09 mmol/g	> 700 µM	44.8 ± 2.35 µM	78.5 ± 2.84 µM	–
COc1ccc(-c2cc3ccc(O)cc3oc2=O)cc1 [Compound 9]	0.67 ± 0.04 mmol/g	> 700 µM	30.1 ± 3.06 µM	–	–
